{
  "source": "patent US9901649B2",
  "about": "“Block copolymers for therapeutic drug delivery” (INTERNATIONAL BUSINESS MACHINES CORPORATION, priority 2016, dated 2018)",
  "key": {"[1]": {"system": "NCCFH-01 cells", "test": "In vitro cytotoxicity, MTT assay", "format": "cell-based", "conditions": "48 hours, 37° C., pH 7.4, read-out: half maximal inhibitory concentration IC50", "procedure": "BT-474 human breast cancer cell line was purchased from ATCC (Manassas, Va., U.S.A). Hereditary leiomyomastosis and renal cancer cells (NCCFH-01 cell line) was obtained from Dr. Min-Han Tan, Institute of Bioengineering and Nanotechnology, Singapore. Cells were cultured in RPMI-1640 medium containing 25 mM Hepes and L-Glutamine (Lonza, Singapore) supplemented with 10% fetal bovine serum (FBS), 100 U/mL penicillin and 100 μg/mL streptomycin at 37° C. in 5% CO2. 3-[4,5-Dimenthylthiazol-2-yl]-2,5-diphenyl tetrazolium bromide (MTT) was dissolved in phosphate-buffered saline (PBS, pH 7.4) with a concentration of 5 mg/mL, and the solution was filtered with a 0.22 micrometer filter to remove blue formazan crystals prior to usage.\nCytotoxicity of free DOX, DOX-loaded particles, and blank particles was determined through MTT assay. BT-474 cells and NCCFH-01 cells were seeded into 96-well plates at a density of 5×10^3 cells per well and incubated overnight in 100 microliters of RPMI-1640 containing 25 mM Hepes and L-Glutamine, supplemented with 10% FBS and 5% penicillin-streptomycin at 37 C, 5% CO2. […] After gentle agitation for 15 minutes, the absorbance of formazan crystals was taken to be that at 550 nm subtracted by that at 690 nm (TECAN, Switzerland). Cell viability was expressed as a percentage of absorbance of the control cells."}, "[2]": {"test": "Mouse body weight change during the in vivo treatments", "parameters": "species or system female BALB/c nude mice", "conditions": "nude mice bearing BT-474 xenografts; DOX 5 mg/kg, tail vein injection at day 0, 3, 6 and 10", "procedure": "Female BALB/c nude mice were provided by Singapore Biological Research Center (BRC) at 6 weeks of age (20-22 g). All animal studies were adhered to protocols approved by the Singapore BRC's Institutional Animal Care and Use Committee. BT-474 cells (1×10^7) were suspended in 200 microliters of a solution containing Matrigel and PBS (volume ratio: 50/50) and subcutaneously injected into the right flank of female BALB/c nude mice. Estradiol pellet (0.72 mg/pellet, 60 days release) was subcutaneously administered into mice one day before the inoculation. Once the tumor volume reached about 200 mm^3 on the 14th day (recorded as day 0), the mice were randomly divided into 5 groups (7-8 animals per group): group 1 for 0.9% saline as control, group 2 for blank particles, group 3 for free DOX, group 4 for DOX-loaded particles LM-1, and group 5 for DOX-loaded particles LM-2. The dose of DOX in all formulations was 5 mg/kg. The formulations were given to mice via tail vein injection at day 0, 3, 6 and 10. At the predetermined time points, mice were weighed and tumor size was measured with a Vernier caliper. The tumor volume was calculated using the following formula: Tumor volume=length×width^2/2."}},
  "data": [
    {"smiles": "COc1cccc2c1C(=O)c1c(O)c3c(c(O)c1C2=O)C[C@@](O)(C(=O)CO)C[C@@H]3O[C@H]1C[C@H](N)[C@H](O)[C@H](C)O1", "note": "[DOX, Doxorubicin]", "values": [
      {"measurement": "IC50", "setting": "[1]", "value": 12.7, "unit": "µg/mL"},
      {"measurement": "body weight loss", "setting": "[2]", "value": 20, "unit": "%"}
    ]}
  ]
}
